ChEMBL document CHEMBL3885861, “Open TG-GATES”

Organism: Rattus norvegicus
Assay: Open TG-GATES - Regimen: Single
Type: toxicity, organism-based, Sprague-Dawley
Parameters: regimen Single, gender Male, age 6 weeks
Details: in vivo, po, 300 mg/kg, route gavage, dose level High; for APTT / Bas / Eos / Fbg / Hb / Ht / Lym / MCH / MCV / Mono / Neu / PT / Plat / RBC / Ret / WBC: tissue Blood; for KIDNEY_L / KIDNEY_R / KIDNEY_TOTAL: tissue Kidney; for LIVER: tissue Liver; for ALP / ALT / AST / BUN / CRE / Ca / Cl / DBIL / GLC / IP / K / LDH / Na / PL / RALB / TBIL / TG / TP / gamma-GTP: tissue Plasma

NC(=O)N1c2ccccc2C=Cc2ccccc21 [CARBAMAZEPINE]
TERMINAL_BW (3 h): 216.2 g
APTT (3 h): 20.3 s
Bas (3 h): 0%
Eos (3 h): 1%
Fbg (3 h): 202 mg/dL
Hb (3 h): 13 g/dL
Ht (3 h): 38.4%
Lym (3 h): 80%
MCH (3 h): 21.6 pg
MCV (3 h): 63.7 fL
Mono (3 h): 2.2%
Neu (3 h): 15.8%
PT (3 h): 12.5 s
Plat (3 h): 116.4 x10_4/uL
RBC (3 h): 602.6 x10_4/ul
Ret (3 h): 7%
WBC (3 h): 87.3 x10_2/uL
KIDNEY_L (3 h): 1 g
KIDNEY_R (3 h): 1 g
KIDNEY_TOTAL (3 h): 2 g
LIVER (3 h): 9.7 g
ALP (3 h): 789.4 IU/L
ALT (3 h): 34.4 IU/L
AST (3 h): 65 IU/L
BUN (3 h): 10.2 mg/dL
CRE (3 h): 0.4 mg/dL
Ca (3 h): 10.3 mg/dL
Cl (3 h): 101.8 meq/L
DBIL (3 h): 0.082 mg/dL
GLC (3 h): 194.8 mg/dL
IP (3 h): 10 mg/dL
K (3 h): 3.8 meq/L
LDH (3 h): 199.6 IU/L
Na (3 h): 140.2 meq/L
PL (3 h): 150.8 mg/dL
RALB (3 h): 3.4 g/dL
TBIL (3 h): 0.1 mg/dL
TG (3 h): 63 mg/dL
TP (3 h): 5.4 g/dL
gamma-GTP (3 h): 1 IU/L
TERMINAL_BW (6 h): 212.3 g
APTT (6 h): 20 s
Bas (6 h): 0%
Eos (6 h): 1%
Fbg (6 h): 205.6 mg/dL
Hb (6 h): 13.2 g/dL
Ht (6 h): 38.6%
Lym (6 h): 80.6%
MCH (6 h): 21.2 pg
MCV (6 h): 61.9 fL
Mono (6 h): 3%
Neu (6 h): 14%
PT (6 h): 12.8 s
Plat (6 h): 123.1 x10_4/uL
RBC (6 h): 623 x10_4/ul
Ret (6 h): 6.2%
WBC (6 h): 86.4 x10_2/uL
KIDNEY_L (6 h): 1 g
KIDNEY_R (6 h): 1 g
KIDNEY_TOTAL (6 h): 2 g
LIVER (6 h): 9.2 g
ALP (6 h): 891 IU/L
ALT (6 h): 35.4 IU/L
AST (6 h): 68 IU/L
BUN (6 h): 8.6 mg/dL
CRE (6 h): 0.4 mg/dL
Ca (6 h): 10.4 mg/dL
Cl (6 h): 102.8 meq/L
DBIL (6 h): 0.074 mg/dL
GLC (6 h): 188.2 mg/dL
IP (6 h): 9.9 mg/dL
K (6 h): 3.7 meq/L
LDH (6 h): 203.4 IU/L
Na (6 h): 140.8 meq/L
PL (6 h): 146 mg/dL
RALB (6 h): 3.4 g/dL
TBIL (6 h): 0.1 mg/dL
TG (6 h): 41.8 mg/dL
TP (6 h): 5.6 g/dL
gamma-GTP (6 h): 0.6 IU/L
TERMINAL_BW (9 h): 212.2 g
APTT (9 h): 20 s
Bas (9 h): 0%
Eos (9 h): 1%
Fbg (9 h): 221.6 mg/dL
Hb (9 h): 13.2 g/dL
Ht (9 h): 38.3%
Lym (9 h): 80.6%
MCH (9 h): 20.7 pg
MCV (9 h): 60.2 fL
Mono (9 h): 2.2%
Neu (9 h): 15.2%
PT (9 h): 13.3 s
Plat (9 h): 123.1 x10_4/uL
RBC (9 h): 637 x10_4/ul
Ret (9 h): 5.7%
WBC (9 h): 77.3 x10_2/uL
KIDNEY_L (9 h): 1 g
KIDNEY_R (9 h): 1 g
KIDNEY_TOTAL (9 h): 1.9 g
LIVER (9 h): 8.5 g
ALP (9 h): 816 IU/L
ALT (9 h): 26.6 IU/L
AST (9 h): 60.4 IU/L
BUN (9 h): 9.4 mg/dL
CRE (9 h): 0.3 mg/dL
Ca (9 h): 10.3 mg/dL
Cl (9 h): 101 meq/L
DBIL (9 h): 0.068 mg/dL
GLC (9 h): 195.8 mg/dL
IP (9 h): 9.9 mg/dL
K (9 h): 3.6 meq/L
LDH (9 h): 200.6 IU/L
Na (9 h): 140.6 meq/L
PL (9 h): 139 mg/dL
RALB (9 h): 3.4 g/dL
TBIL (9 h): 0.1 mg/dL
TG (9 h): 47.2 mg/dL
TP (9 h): 5.6 g/dL
gamma-GTP (9 h): 0.6 IU/L
TERMINAL_BW (24 h): 214.8 g
APTT (24 h): 20.8 s
Bas (24 h): 0%
Eos (24 h): 0.8%
Fbg (24 h): 200.6 mg/dL
Hb (24 h): 13.7 g/dL
Ht (24 h): 40.4%
Lym (24 h): 86%
MCH (24 h): 21.7 pg
MCV (24 h): 63.9 fL
Mono (24 h): 2%
Neu (24 h): 10.6%
PT (24 h): 13 s
Plat (24 h): 127.9 x10_4/uL
RBC (24 h): 632.8 x10_4/ul
Ret (24 h): 6%
WBC (24 h): 91 x10_2/uL
KIDNEY_L (24 h): 1 g
KIDNEY_R (24 h): 1 g
KIDNEY_TOTAL (24 h): 2 g
LIVER (24 h): 9.7 g
ALP (24 h): 927.8 IU/L
ALT (24 h): 34.6 IU/L
AST (24 h): 65 IU/L
BUN (24 h): 14.8 mg/dL
CRE (24 h): 0.4 mg/dL
Ca (24 h): 10.4 mg/dL
Cl (24 h): 103.2 meq/L
DBIL (24 h): 0.1 mg/dL
GLC (24 h): 203.2 mg/dL
IP (24 h): 7.9 mg/dL
K (24 h): 3.6 meq/L
LDH (24 h): 212.2 IU/L
Na (24 h): 141 meq/L
PL (24 h): 121.4 mg/dL
RALB (24 h): 3.4 g/dL
TBIL (24 h): 0.2 mg/dL
TG (24 h): 88 mg/dL
TP (24 h): 5.6 g/dL
gamma-GTP (24 h): 0.8 IU/L
